Data from patent publication US11529394B2, “Polypeptide conjugates and methods of uses” (BEIJING QL BIOPHARMACEUTICAL CO., LTD., priority 2020, dated 2022).

Assays:
[1] = endogenous GLP-1; cited from earlier work
db/db mice = experiment: Non-fasting glucose in db/db mice after single subcutaneous dose; type: in vivo; conditions: non-fasting delta blood glucose
Experimental: Method: 10 weeks old male db/db mice were injected subcutaneously with protein once. […] Delta blood glucose is glucose subtracted by baseline level. […] The area under the curve for delta blood glucose from 0 until 192 hours (AUCΔBG 0-192 h) was calculated.

human serum albumin = human serum albumin (Homo sapiens, UniProt P02768); experiment: Human serum albumin binding by surface plasmon resonance (Biacore 8K); conditions: human serum albumin on CM5 chip, SPR
Experimental: Method: Binding of molecules to serum albumin was characterized by surface plastron resonance in a Biacore 8K instrument, Serum albumin from different species was covalently bound to CM5 sensor chips surface until 4000 RU was reached. The chip was blocked by 1M ethanolamine with flowrate of 10 μL/min for 420 s, Each molecule sample was diluted and injected at a flow rate of 30 μL/min to allow for binding to chip-bound albumin for 120 s and for dissociation for 300 s. Binding buffer without molecule was sent over the chip at the flow rate of 20 seconds to allow spontaneous dissociation of bound molecule for 30 seconds.

GLP-1 receptor = GLP-1 receptor (Homo sapiens, UniProt P43220); conditions: cited from earlier work
[2] = Body weight loss in C57 lean mice after single subcutaneous dose; type: in vivo, C57BL/6 mice
Experimental: Method: 10 week old male C57BL/6 mice were injected subcutaneously with protein once on Day 1. Body weight was measured daily and five animals were used for each treatment group. […] The area under the curve for body weight loss (%) from 0 until 8 days (AUC ΔBW 0-8d) was calculated.

Chain of human serum albumin (P02768 25-609): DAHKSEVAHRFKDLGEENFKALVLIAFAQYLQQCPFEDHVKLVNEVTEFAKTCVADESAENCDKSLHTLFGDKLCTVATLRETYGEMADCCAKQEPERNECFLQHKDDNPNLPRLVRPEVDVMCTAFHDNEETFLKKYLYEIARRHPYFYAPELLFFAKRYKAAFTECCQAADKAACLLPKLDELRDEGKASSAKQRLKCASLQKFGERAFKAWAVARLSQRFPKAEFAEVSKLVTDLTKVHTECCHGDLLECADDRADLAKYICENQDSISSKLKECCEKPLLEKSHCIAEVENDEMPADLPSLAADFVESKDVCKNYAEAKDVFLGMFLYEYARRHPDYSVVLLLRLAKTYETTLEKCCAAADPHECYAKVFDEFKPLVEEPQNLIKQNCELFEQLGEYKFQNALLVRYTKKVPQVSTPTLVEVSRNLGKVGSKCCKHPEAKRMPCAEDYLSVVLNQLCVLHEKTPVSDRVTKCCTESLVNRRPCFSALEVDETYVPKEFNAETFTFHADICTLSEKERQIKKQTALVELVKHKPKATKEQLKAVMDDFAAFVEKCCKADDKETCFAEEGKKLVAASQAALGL
Chain of GLP-1 receptor (P43220 24-463, species assumed): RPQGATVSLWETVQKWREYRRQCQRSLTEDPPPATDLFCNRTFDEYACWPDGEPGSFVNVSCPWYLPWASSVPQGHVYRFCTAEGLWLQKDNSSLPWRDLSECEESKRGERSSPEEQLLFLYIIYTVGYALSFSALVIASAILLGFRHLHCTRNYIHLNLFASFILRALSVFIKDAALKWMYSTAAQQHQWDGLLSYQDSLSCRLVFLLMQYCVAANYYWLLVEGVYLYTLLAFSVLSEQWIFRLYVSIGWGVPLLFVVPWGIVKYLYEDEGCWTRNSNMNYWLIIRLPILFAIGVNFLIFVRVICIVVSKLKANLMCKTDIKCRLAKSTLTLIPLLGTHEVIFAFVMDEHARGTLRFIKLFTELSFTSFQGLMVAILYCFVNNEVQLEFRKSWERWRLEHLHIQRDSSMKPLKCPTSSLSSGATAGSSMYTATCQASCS

For “GLP-1: endogenous Glucagon-Like Peptide-1, 30 or 31 amino acid peptide fragment (7-36 or 7-37)”, which half-life [1] is on record?
The half-life was “approximately 2 minutes”.

Which “AUC ΔBG 0-192 h” value (db/db mice; 3 nmol/kg s.c. once) does the source give for semaglutide [reference compound] here?
Its value is -317.0 mmol·h/L.

And the “AUC ΔBG 0-192 h” value (db/db mice; 10 nmol/kg s.c. once)?
The value was -583.4 mmol·h/L.

What about the “AUC ΔBG 0-192 h” value (db/db mice; 30 nmol/kg s.c. once) of the same substance?
Its value is -527.1 mmol·h/L.

And the Rmax (human serum albumin)?
The Rmax was 55.2 RU.

What about the “loss in GLP-1 receptor binding in presence of human serum albumin (HSA) relative to unconjugated counterpart” value (GLP-1 receptor) of the same substance?
The value was 939 fold.

And the “AUC ΔBW 0-8 d” value ([2]; Study 1 (FIG. 1A and 1B), 3 nmol/kg s.c. once)?
Its value is −0.6 day* %.

What about the “AUC ΔBW 0-8 d” value ([2]; Study 1 (FIG. 1A and 1B), 10 nmol/kg s.c. once) of the same substance?
Its value is −11.1 day* %.

What about the “AUC ΔBW 0-8 d” value ([2]; Study 1 (FIG. 1A and 1B), 30 nmol/kg s.c. once) of the same substance?
Its value is −12.7 day* %.

What about the “AUC ΔBW 0-8 d” value ([2]; Study 2 (FIG. 1C), 30 nmol/kg s.c. once) of the same substance?
Its value is −9.3 day* %.

And the “AUC ΔBW 0-8 d” value ([2]; Study 3 (FIG. 1D), 30 nmol/kg s.c. once)?
The value was −13.2 day* %.
